Test results as given in PubChem BioAssay AID977607 (Broad Institute, 2014).
Several values for one entry are separate records, joined by “and”; a condition that tells them apart may be missing. Equal values may be shown once. Activity calls are given as the source filed them.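 The calls were made as follows: active = curve reaches 40% activation over neutral controls at an AC40 no higher than the top valid tested concentration; inconclusive = no clear call, values can overlap the other calls; inactive = signal moving opposite to the expected increase, and the rest.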

System: INS-1E GLuc insulin secretion reporter, luminescence, 2-3 h
Assay: GLuc-reported insulin release enhancers, glucose-stimulated beta cells – cell-based, INS-1E, Gaussia luciferase, luminescence, cherry-pick, set 2, dose response (AID 977607)

Row | SMILES | AC40
1 | Cc1ccc(-c2ccc(C3[C@@H]4CN(C(=O)Nc5ccc(C(F)(F)F)cc5)C[C@H]3N4)cc2)cc1 (some centres undefined) | 4.06 µM and 2.82 µM
2 | Oc1ccccc1C1SC(c2ccccc2O)SC(c2ccccc2O)S1 (centres undefined) | 6.08 µM
3 | CCOC(=O)Cc1nn(Cc2ccccc2)c(=O)c2ccccc12 | 1.61 µM
4 | CNc1nc(Nc2ccccc2)nc(OCC(F)(F)F)n1 | 0.606 µM
5 | COc1ccc(C#Cc2ccc([C@@H]3[C@@H](CO)N4CCCCN(Cc5ccccc5F)C[C@@H]34)cc2)cc1 | 14.3 µM
6 | CCOc1ccc(Nc2oc(-c3ccc(Cl)cc3)nc2C#N)cc1 | 5.14 µM
7 | O=C(NC(=S)Nc1ccc(NC(=O)c2cccs2)cc1)c1cc2ccccc2o1 | 14.3 µM
8 | Cc1cc(NC(=O)c2ccccc2F)n(-c2nc3ccccc3[nH]2)n1 | 5.86 µM
9 | O=S(=O)(c1ccccc1F)N1C[C@@H]2N[C@H](C1)C2c1ccc(/C=C/c2ccccc2)cc1 (some centres undefined) | 6.46 µM
10 | COC(=O)c1ccc(C2C(Oc3ccc(OC)cc3)C(=O)N2CCc2ccc(F)cc2)cc1 (centres undefined) | 12.6 µM
11 | O=C(O)c1ccc(-n2nc(-c3ccccc3)c3ccccc3c2=O)cc1 | > 35 µM (inactive)
12 | COc1cc(OC)c2c3c(c(C4CCCCC4)nc2c1)CCC3 | 9.8 µM
13 | Cc1cc(C)c2nc(N(CCCN(C)C)C(=O)c3ccc4c(c3)CCCC4)sc2c1 | 6.21 µM
14 | CNc1nc(Sc2ccccc2)cc(C(F)(F)F)n1 | > 35 µM (inactive)
15 | COc1ccc(C#Cc2ccc([C@@H]3[C@H](CO)N4CCCCN(Cc5ccccc5F)C[C@@H]34)cc2)cc1 | 6.53 µM
16 | COc1cc2c(cc1OC)-c1cc(Nc3ccc(N(C)C)cc3)nc(=O)n1CC2 | 5.31 µM
17 | O=C(Cn1c(COc2ccccc2)nc2ccccc21)Nc1cc(Cl)cc(Cl)c1 | 10.9 µM
18 | O=c1cc(-c2ccncc2)oc2c1ccc1ccccc12 | 11.6 µM
19 | CCN1CCN(Cc2ccc(NC(=O)c3cccc(-c4ccc5nc(NC(=O)C6CC6)sc5n4)c3)cc2C(F)(F)F)CC1 | 11.4 µM
20 | Cc1ccccc1-n1sc2cc(F)ccc2c1=O | 1.56 µM
21 | Cc1cc(NC(=O)c2cc(-c3cccc(Cl)c3)on2)no1 | 5.68 µM
22 | CCOc1ccc(CCNC(=O)COc2cc(=O)n(C)c3ccccc23)cc1OCC | 22.6 µM

Row | SMILES | AC40
23 | CCCCCc1cc(=O)oc2c(C(CCN3CCCC(C)C3)c3ccc(OC)cc3)c(OC)cc(OC)c12 (centres undefined) | 12 µM
24 | N#CCc1nn(-c2ccccc2)c2ncnc(N)c12 | 11.9 µM
25 | Cc1c(CC(=O)O)c(=O)oc2c(C)c(OCc3ccccc3Br)ccc12 | > 35 µM (inactive)
26 | CC(C)n1cc(/C(N)=N/O)c(=O)n(Cc2ccccc2)c1=O | 9.39 µM
27 | COc1cc2c(cc1OC)-c1cc(Nc3ccc(C)cc3)nc(=O)n1CC2 | 11.8 µM
28 | COc1cc2c(cc1OC)C1=C(C#N)CCC(=NC(=O)c3ccco3)N1CC2 | 7.7 µM
29 | CCOC(=O)c1c(-c2ccc(-c3ccccc3)cc2)csc1NC(=O)CNCCN(C)C | 8.58 µM
30 | O=C(CC1c2ccccc2Oc2ccccc21)Nc1ccccc1C(F)(F)F | 6.13 µM
31 | CCOc1ncccc1C(=O)Nc1ccccc1F | > 35 µM (inactive)
32 | CC(C)Nc1nc(Nc2ccc(C(N)=O)cc2)c2sccc2n1 | 9.89 µM
33 | CCCn1c2ccccc2c2cn[nH]c(=O)c21 | 16.4 µM
34 | COc1ccc2nc3ccccc3nc2c1NC(=O)c1ccc(Cl)cc1Cl | 6.29 µM
35 | CCCCCc1c(Cc2ccccc2)ncn1CCc1ccccc1OC | 12.3 µM
36 | O=c1c(C=Nc2ccc(Oc3ccccc3)cc2)c[nH]n1-c1cccc(Cl)n1 | 6.27 µM
37 | COc1ccc(C(=O)Nc2ccccc2C(=O)Nc2ccncc2)cc1 | 0.413 µM
38 | Cc1cc(C)nc(Nc2n[nH]c(COc3ccc4ccccc4c3)n2)n1 | 7.71 µM
39 | CCCCCCCOC(=O)c1nc(Cl)c(Cl)c(N)c1Cl | 14.5 µM
40 | CC(C)Sc1nc2c(c(=O)[nH]c(=O)n2C)n1Cc1ccc(Cl)cc1 | 19.9 µM
41 | Cc1cccc(S(=O)(=O)N2C[C@@H]3N[C@H](C2)C3c2ccc(-c3ccccc3F)cc2)c1 (some centres undefined) | 5.72 µM
42 | COc1ccc(S(=O)(=O)N2CCc3ccccc32)cc1C(=O)Nc1ccc(C(N)=O)cc1 | 16.3 µM
43 | CCOC(=O)c1c(NC(=O)Cn2nc(C(F)(F)F)cc2C)sc(C)c1C | 9.34 µM
44 | O=C(Nc1ccc(C(F)(F)F)cc1)N1C[C@@H]2N[C@H](C1)C2c1ccc(-c2ccccc2)cc1 (some centres undefined) | 10.2 µM

Row | SMILES | AC40
45 | O=C(COc1ccc2c(c1)OCO2)Nc1ccc2c(c1)oc1ccccc12 | 16.4 µM
46 | Fc1ccc(-c2cc(C(F)(F)F)nc(-n3cncn3)n2)cc1 | 0.52 µM
47 | O=C(Cn1ncc(Cl)c(Cl)c1=O)Nc1ccc2c(c1)OCO2 | 12 µM
48 | O=C(Nc1ccc(SC(F)F)cc1)c1cccc2nc3ccccc3nc12 | 9.11 µM
49 | CCOC(=O)c1cnc2ccc(Cl)cc2c1Nc1ccc(S(=O)(=O)Nc2ncccn2)cc1 | 3.45 µM
50 | CC(=O)Nc1cc(-c2cccc(C(=O)NCCN(C)C)c2)cn2c(-c3cccc(C(F)(F)F)c3)cnc12 | 14.7 µM
51 | Clc1ccc(/C=N/NC2=Nc3cccc4cccc2c34)cc1 | 2.13 µM
52 | CC(C)Nc1nc(NC(C)(C)C)nc(Oc2ccc(=O)n(C)n2)n1 | 29.2 µM
53 | CCn1cc(S(=O)(=O)NCCc2ccc(OC)c(OC)c2)cn1 | 3.87 µM
54 | c1ccc(Cn2nnc3c(N4CCc5ccccc54)ncnc32)cc1 | 5.06 µM
55 | COc1ccc(CCN(C)C(=O)COc2cccc(-n3cnnn3)c2)cc1OC | > 35 µM (inactive)
56 | O=c1c2ccccc2sn1-c1ccccc1 | 3.25 µM
57 | C=CCn1cc(Cl)cc(C(=O)Nc2ccccc2)c1=O | 19.7 µM
58 | OC(CNCCC1C=Nc2ccccc21)Cn1c2ccc(Cl)cc2c2cc(Cl)ccc21 (centres undefined) | 4.84 µM
59 | COc1ccc(C2=NN(c3ccc(C(=O)O)cc3)C(c3ccc(OC)c(OC)c3)C2)cc1 (centres undefined) | 4.29 µM
60 | CS(=O)(=O)c1ccc2nc(NC(=O)Nc3ccc(Cl)c(Cl)c3)sc2c1 | 4.78 µM
61 | O=C(Nc1ccc2ccccc2c1)c1cccc2ccccc12 | 8.55 µM
62 | COc1ccc(CCNC(=O)CCc2nc3ccccc3[nH]2)cc1OC | 0.311 µM
63 | COC(=O)C1=C(C)N(Cc2cccc(C(F)(F)F)c2)C(=NCc2ccc(C(F)(F)F)cc2)NC1c1ccccc1 (centres undefined) | 9.69 µM
64 | O=C(Nc1nc(-c2ccc(-c3ccccc3)cc2)cs1)C1=COCCO1 | 6.8 µM
65 | Cc1ccc(CN(C(=O)c2cccs2)C2CCS(=O)(=O)C2)cc1 (centres undefined) | 19.7 µM
66 | OC[C@@H]1[C@@H](c2ccc(C#CC3CCCC3)cc2)[C@H]2CN(CCC(F)(F)F)CCCCN12 | 8.56 µM

Row | SMILES | AC40
67 | COc1cc(CN2CCc3ccccc3C2)ccc1O | 6.75 µM
68 | COc1cc(C(=O)Nc2ccn(C)n2)ccc1OC(F)F | > 35 µM (inactive)
69 | C=CCOc1ccc(-c2nc3c(c(=O)[nH]c(=O)n3CCCC)n2C)cc1Br | 11.1 µM
70 | COc1ccc(C)cc1NCc1cc(=O)oc2cc(-c3ccccc3)c(O)cc12 | 15.8 µM
71 | COC(=O)C1=C(C)N(C)C(=NCc2cccc(C(F)(F)F)c2)NC1c1ccc(C(F)(F)F)cc1 (centres undefined) | 18.1 µM
72 | O=C(NCC1OCCc2ccccc21)c1ccc(NC(=O)c2cccc(Br)c2)cc1 (centres undefined) | 14 µM
73 | Nc1c(C(=O)Nc2ccc3c(c2)OCCO3)nnn1Cc1ccc(Cl)cc1 | 12.7 µM
74 | COc1ccccc1CCn1cnc(-c2cccc(F)c2)c1C(C)C | 14 µM
75 | CC(C)(C)c1cc(NCCCn2ccnc2)n2ncc(-c3ccc(Cl)cc3)c2n1 | 6.19 µM
76 | Cc1ccc2nc(-c3ccc(NC(=O)COC(=O)c4ccco4)cc3)sc2c1 | 4.42 µM
77 | CCCCc1ccc(NC(=O)COc2ccc(C(=O)Nc3ccccc3OCC)cc2)cc1 | 2.88 µM
78 | COc1ccc(C(=O)NCC(=O)OCC(=O)Nc2ccc(C)c(S(=O)(=O)N(C)C)c2)cc1OC | 1.67 µM
79 | CC1(Cc2cc(Cl)ccc2C(F)(F)F)C(=O)Nc2cc(C(F)(F)F)ccc21 (centres undefined) | 34 µM
80 | CC(C)C(Cl)=NOC(=O)Nc1ccc(S(N)(=O)=O)cc1 | 10.2 µM
81 | C[C@@H]1CN([C@H](C)CO)S(=O)(=O)c2ccc(-c3ccc(F)cc3)cc2O[C@H]1CN(C)Cc1cccc(F)c1 | 15.5 µM
82 | CCOC(=O)c1oc2cc(O)cc(C)c2c1C | 15.1 µM
83 | COc1ccccc1C(=O)NC(=S)Nc1ccc2[nH]c(=O)[nH]c2c1 | 25.1 µM
84 | COc1cc(CN2C[C@@H]3N[C@H](C2)C3c2ccc(/C=C/c3ccccc3)cc2)cc(OC)c1 (some centres undefined) | 5.5 µM
85 | Cc1ccc(C(C)C)c(OCCNCCc2ccccc2)c1 | 15 µM
86 | CC(C)Cn1c(=O)n(C)c(=O)c2[nH]cnc21 | 9.51 µM
87 | COc1ccccc1C(=O)NC(=S)NC12CC3CC(CC(C3)C1)C2 | 7.9 µM
88 | NC(N)=N/N=C/c1ccc(N(c2ccccc2)c2ccccc2)cc1 | 5.68 µM

Row | SMILES | AC40
89 | COC(=O)c1cnn(-c2nc(-c3ccccc3)cs2)c1N | > 35 µM (inactive)
90 | CC(C)C[C@H](NC(=O)c1[nH]cnc1C(=O)N[C@@H](C)c1ccccc1)C(=O)OC(C)(C)C | 31.3 µM
91 | COc1ccc(-c2ccc(SCc3cccnc3)nn2)cc1OC | 0.451 µM
92 | Cc1nn(-c2ccccc2)c2c1C(O)CC(C)(C)C2 (centres undefined) | 3.51 µM
93 | CC(C)(C)c1ccc(-c2cc(-c3ccccc3O)[nH]n2)cc1 | 6.61 µM
94 | O=S(=O)(Nc1ccc(-c2ccc3nncn3n2)cc1)c1ccccc1Cl | 15.2 µM
95 | CCCCc1c(Cc2cccc(F)c2)ncn1CCc1ccccc1OC | 12.3 µM
96 | Fc1ccc(/C=N/c2c(-c3ccc(F)cc3)nc3n2CCS3)cc1 | 6.62 µM
97 | CCOC(=O)c1ccccc1NC(=O)c1n[nH]c(=O)c2ccccc12 | 5.47 µM
98 | Cc1ccc(C)c(OCC(=O)Nc2nonc2NC(=O)COc2cc(C)ccc2C)c1 | 5.44 µM
99 | COc1ccc(C(=O)N=C2CCC(C#N)=C3c4cc(OC)c(OC)cc4CCN23)cc1 | 0.483 µM
100 | COc1ccc(CCNS(=O)(=O)c2cn(C)cn2)cc1OC | 4.84 µM
101 | Cc1cccc(-c2ccc(C3[C@@H]4CN(C(=O)Nc5ccc(C(F)(F)F)cc5)C[C@H]3N4)cc2)c1 (some centres undefined) | 1.09 µM
102 | NC(CCc1ccccc1)c1csc(Nc2ccc(C(F)(F)F)cn2)n1 (centres undefined) | 10.4 µM
103 | O=C(NC1CCCCC1)C(c1ccc(F)cc1)N(Cc1ccccc1)C(=O)CN1C(=O)c2ccccc2S1(=O)=O (centres undefined) | 27.1 µM
104 | COc1ccc(-c2cc3ccccc3oc2=O)cc1NC(=S)NC(=O)c1ccc2c(c1)OCCO2 | 4.75 µM
105 | Cc1cc(Cl)ccc1Oc1nc(-c2ccccc2)ncc1S(C)(=O)=O | 4.28 µM
106 | CC(=O)Nc1c(C(=O)C2CC2)oc2ccccc12 | 6.8 µM
107 | O=C(Nc1ccc(C(F)(F)F)cc1)N1[C@@H]2CNC[C@H]1C2c1ccc(/C=C/c2ccccc2)cc1 (some centres undefined) | 9.53 µM
108 | O=C1c2cccnc2C(Nc2cccc(F)c2)N1Cc1ccco1 (centres undefined) | 28.5 µM
109 | CC(=O)c1nn(-c2ccc(Br)cc2)cc1C(=O)c1ccccc1 | 8.45 µM
